Reference: PMC7362284, “Pharmacokinetic and Lipidomic Assessment of the In Vivo Effects of Parishin A-Isorhynchophylline in Rat Migraine Models” (Journal of Analytical Methods in Chemistry, 2020)
Like-named read-outs stand apart in the source and are kept apart here.

Assay: Pharmacokinetic study in nitroglycerin-induced migraine model rats (plasma, HPLC-MS/MS)
Format: in vivo, rat
Conditions: for CL/F / MRT last / MRT inf / Vd/F / half-life: female, Sprague-Dawley, po; for CL/F: read-out: CL z/F (converted); for MRT last: read-out: MRT (0 − t); for MRT inf: read-out: MRT (0 − ∞); for Vd/F: read-out: V z/F; for half-life: read-out: t1/2z (converted); for clearance rate (CL z/F), administration-alone group higher than the coadministration group: single administration versus PI coadministration
Protocol: Healthy Sprague-Dawley (SD) female rats weighing 180 g ± 20 were provided by Hunan SJA Laboratory Animal Co., Ltd. (animal license number: SCXK (Xiang) 2016-0002). Rats underwent adaptive feeding for one week and were fasted for 12 h. Rats had open access to water throughout the study. For pharmacokinetic analysis, 18 SD rats were randomly divided into 3 groups and 0.4 mL of nitroglycerin (dosage: 10 mg/kg) was injected into the forehead to establish the migraine model. […] For blood sampling, 0.3 mL of blood was taken from the rat orbit prior to drug administration and 0, 5, 15, 30, and 45 min and 1, 2, 4, 6, 8, 10, 12, and 24 h after administration. These blood samples were collected into EP tubes coated with heparin sodium. After centrifugation at 4000 rmp for 10 min, supernatants were collected and stored at −80°C.
The mixture was vortexed for 3 min and centrifuged for 10 min at 13000 rpm. 200 μL of supernatants was collected for LC/MS analysis. For GAS and PA assessments, 50 μL of geniposide (IS: 350 ng/mL) and 250 μL of methanol were added to 50 μL of the plasma sample. The mixture was vortexed for 3 min and centrifuged for 10 min at 13000 rpm. 200 μL of supernatants was collected into centrifuge tubes, dried in nitrogen, and dissolved in 200 μL of 5% acetonitrile solution (95 : 5, v : v).
For pharmacokinetic studies, the AB Sciex Triple Quad™ 4500 was used for detection. […] A flow rate of 0.5 mL/min was used with an injection volume of 2 μL. The gradient elution was 0.0–1.2 min, 5% B; 1.2–6.0 min, 5–35% B; 6.0–8.5 min, 35–95% B; 8.5–9.0 min, 5% B; and 9.0–10.0 min, 5% B. Under mass spectrometry conditions, the ESI positive ion mode with multiple reaction monitoring (MRM) was used for detection using the following parameters: ion source temperature = 550°C; ion spray voltage = 4500 V; curtain gas (nitrogen) = 25 psi; atomizing gas (GS 1) = 50 psi; auxiliary gas (GS 2) = 50 psi. […] The IS was pyrrolidone hydrochloride, m/z 357.1–134.1 (DP: 85 V; CE: 35 eV). For GAS and PA, the column temperature was controlled at 40°C; phase A was 0.1% aqueous formic acid, and phase B was acetonitrile; flow rate was 0.5 mL/min; injection volume was 2 μL. The gradient elution was as follows: 0.0–1.2 min, 5% B; 1.2–8.0 min, 5–95% B; 8.0–9.0 min, 95–5% B; 9.0–10.0 min, 5% B; […]. For mass spectrometry, the ESI negative ion mode with MRM mode detection was employed. Mass spectrometry parameters were as follows: ion source temperature = 550°C; ion spray voltage = −4500 V; curtain gas (nitrogen) = 25 psi; atomizing gas (GS 1) = 50 psi; auxiliary gas (GS 2) = 50 psi. Ion pairs were as follows: GAS, m/z 331.1–123.0 (DP: −60 V; CE: −20 V); PA, m/z 995.1–726.9 (DP: −165 V; CE: −39 V). The IS was geniposide, m/z 433.0–225 (DP: −165 V; CE: −20 eV).
DAS 3.2.8 software was used to analyze the plasma concentrations in the different groups across all experimental time points. Time-concentration curves were drawn using Sigma Plot 10.0. For lipidomics, raw data were converted to the common (mzData) format using Agilent MassHunter Qualitative Analysis B.08.00 software (Agilent Technologies, USA). In the R software platform, the XCMS program was used to assess peak identification times, retention time correction, and automatic integration pretreatments. Data were subjected to IS and weight normalization. Visualization matrices containing the sample name, m/z-RT pair, and peak area were obtained. […] After editing, data matrices were imported into SIMCA-P 13.0 (Umetrics, Umea, Sweden), mean-centered, and scaled to Pareto variance. Multivariate analysis was then conducted.

[1] = Combine: PI coadministered (ISO 40 mg/kg, PA 372.4 mg/kg) intragastric, migraine model rats, plasma
[2] = PI coadministration versus single administration, migraine model rats
[3] = Single: PA alone 372.4 mg/kg intragastric, migraine model rats, plasma
[4] = rat, in vivo, Single: PA alone 372.4 mg/kg intragastric, migraine model rats, plasma
[5] = Single: ISO alone 40 mg/kg intragastric, migraine model rats, plasma

Row | SMILES | AUC (0 − t) [1] [μg/L ∗ h] | AUC (0 − ∞) [1] [μg/L ∗ h] | C-max [1] [µg/L] | T-max [1] [h] | AUC, coadministration higher than the administration-alone group [2] [fold] | half-life (t1/2z), coadministration higher than the administration-alone group [2] [fold] | AUC (0 − t) [5] [μg/L ∗ h] | AUC (0 − ∞) [5] [μg/L ∗ h] | C-max [5] [µg/L] | T-max [5] [h] | CL/F (rat, in vivo, 40 mg/kg) [mL/min/kg] | MRT last (rat, in vivo, 40 mg/kg) [h] | MRT inf (rat, in vivo, 40 mg/kg) [h] | Vd/F (rat, in vivo, 40 mg/kg) [L/kg] | half-life (rat, in vivo, 40 mg/kg) [min] | clearance rate (CL z/F), administration-alone group higher than the coadministration group (migraine model rats) [fold] | also measured
1 | OCc1ccc(O[C@@H]2O[C@H](CO)[C@@H](O)[C@H](O)[C@H]2O)cc1 [GAS, gastrodin] | 12757.67 | 13028.09 | 3853.50 | 1.08 | 1.31 | 2.79 |  |  |  |  |  |  |  |  |  |  | MRT, coadministration higher than the single-administration group [2]: 1.84 fold; AUC (0 − t) [3]: 9934.28 μg/L ∗ h; AUC (0 − ∞) [3]: 9935.51 μg/L ∗ h; C-max [3]: 4082.17 µg/L; T-max [3]: 0.83 h; CL/F [4]: 640 mL/min/kg; MRT last [4]: 2.14 h; MRT inf [4]: 2.15 h; Vd/F [4]: 56.6 L/kg; half-life [4]: 61.2 min
2 | CC[C@H]1CN2CC[C@@]3(C(=O)Nc4ccccc43)[C@@H]2C[C@@H]1/C(=C\OC)C(=O)OC [ISO, isorhynchophylline] | 1755.85 | 1768.51 | 867.07 | 0.58 | 1.31 | 1.99 | 1340.01 | 1340.09 | 645.28 | 0.54 | 1480 | 1.76 | 1.77 | 242 | 114 | 3.15 | 
3 | O=C(CC(O)(CC(=O)OCc1ccc(O[C@@H]2O[C@H](CO)[C@@H](O)[C@H](O)[C@H]2O)cc1)C(=O)OCc1ccc(O[C@@H]2O[C@H](CO)[C@@H](O)[C@H](O)[C@H]2O)cc1)OCc1ccc(O[C@@H]2O[C@H](CO)[C@@H](O)[C@H](O)[C@H]2O)cc1 [PA, parishin A] |  |  |  |  |  |  |  |  |  |  |  |  |  |  |  |  | stability in plasma (rat, in vivo): unstable; stability in rats (rat, in vivo): unstable
4 | CC[C@H]1CN2CC[C@]3(C(=O)Nc4ccccc43)[C@@H]2C[C@@H]1/C(=C\OC)C(=O)OC [RHY, rhynchophylline] | 412.82 | 455.57 | 94.10 | 0.96 | 1.44 | 3.46 | 313.95 | 314.00 | 88.35 | 0.63 | 5530 | 3.21 | 3.21 | 663 | 97.8 | 3.16 | 
